Among the data in a melting point compilation (Tetko et al.; mined from patent text by program, amines drawn as free bases though some values may be those of a salt) are melting point values, retold here.

By melting point is commonly meant the temperature, or range, at which the solid turns liquid.

Molecules are shown by their SMILES.

Molecule `O=[N+]([O-])c1ccc(S(=O)(=O)c2ncc(Cl)cn2)s1` displayed a melting point of 144 to 146 °C.
With `COCCOc1ccc(/C=C/c2cc(/C=C/c3ccc4cc[nH]c4c3)n[nH]2)c(OC)c1` the figure was 90 to 96 °C; with `O=C1N(c2ccc(Cl)cc2)c2ncccc2C1(Cc1ccccc1)Cc1ccncc1` (configuration not stated), 182 to 185 °C; with `Cc1cc(OC(=O)c2ccccc2)ccc1O`, 120 to 122 °C.
For the molecule `O=C1c2ccccc2S(=O)(=O)N1CCCCOc1ccc(O)cc1`, the melting point fell in the range of 107 to 109 °C.
Take `CCCn1cc2c(C3C(=O)Nc4ccc(Br)cc43)nc(NCC(C)N)nc2n1` (configuration not stated): the melting point was in the range of 247 to 250 °C.
`CCOC1=CC2=CCC3C4CC(C)(C)C(=O)C4(C)CCC3C2(C)CC1` (configuration not stated) came in with a melting point of 133 to 137 °C.
`O=C(CBr)c1cccc(Nc2ccc3ccccc3n2)c1` registered a melting point of 151 to 152 °C.
The figure for `Nc1cc(Br)c(OC(F)(F)C(F)Cl)cc1[N+](=O)[O-]` (configuration not stated) is 90 °C; for `COc1cc(Nc2ncc(-c3ccccc3C(=O)O)o2)ccc1-c1cnco1` it is 271 to 274 °C.
Molecule `CCC(CC)Nc1c([N+](=O)[O-])cc(C)c(Cl)c1[N+](=O)[O-]` came in with a melting point of 61 to 62.5 °C.
The molecule `CC(C)(C)c1cc(C(=O)Nc2ccc(CC(=O)O)cc2)cc(C(C)(C)C)c1O` registered a melting point of 253 to 254 °C.
In turn, `CCCCCCOc1cc(CC#N)c(OCCCCCC)cc1CC#N` returned a melting point of 96 to 97 °C.
The figure for `COC(=O)c1cccc(C=NNc2ccc(C)cc2)c1O` is 134 to 137 °C; for `CCOC(=O)c1cnn2c(-c3ccc(C)c(C)c3)ccnc12` it is 187 to 188 °C; for `CN(C)C(=O)[C@H]1C[C@H]1C(=O)N(C)C` it is 103 to 104 °C.
The molecule `C#CCN(C(=O)OC(C)(C)C)c1cn(-c2cncc(F)c2)nc1C` yielded a melting point of 81 to 82 °C.
Molecule `Cc1n[nH]c(-c2ccc(Br)cc2)c1NC(=O)c1ccccc1` yielded a melting point of 273 to 274 °C.
Molecule `CC1(C)CC1C(=O)NC(=CCCCCCBr)C(=O)O` (configuration not stated) yielded a melting point of 151 to 153 °C.
As to `COC(=O)Cc1cc(NC(=O)OC(C)(C)C)c([N+](=O)[O-])cc1C#Cc1ccccc1`, the melting point came to 134 °C.
With `CCC(C)(C)NC(=O)NC(C)C#N` (configuration not stated) the figure was 129 to 130 °C; with `COc1cc(N)c(Cl)cc1C(=O)NCC1CCN(CCCCCC(=O)c2ccc(C)c(C)c2)CC1`, 115 to 117 °C; with `O=[N+]([O-])c1ccc2nc(-c3ccccc3)sc2c1`, 179 to 181 °C.
With `CCCNc1nc(-c2ccccc2)c(-c2ccc(=O)n(C(C)C)n2)s1` the figure was 165 to 166 °C.
The figure for `COc1ccc(C(=O)Nc2ccc(C)cc2)cc1NC(=S)Nc1cc(Cl)cc(Cl)c1` is 178 to 180 °C; for `Cc1nc2nccc(O)c2cc1Br` it is over 250 °C; for `O=C1c2ccccc2-c2cc(O)cc3ccc(O)c1c23` it is 280 °C.
The molecule `CCCc1c(OCCCOc2ccc3c(c2CCC)OC(C)(CCC(=O)OC)CC3=O)ccc(C(C)=O)c1O` (configuration not stated) gave a melting point of 73 to 74.5 °C.
In turn, `Fc1ccc(Nc2ncnc3cnc(N4CCC(CCC5CCNCC5)CC4)nc23)cc1Cl` registered a melting point of 112 to 114 °C.
In the case of `O=S(=O)(Cl)c1ccccc1CCl`, the melting point is 43 to 45 °C.
Turning to `CCN1CCN(c2cc3c(cc2Cl)c(=O)c(C(=O)O)cn3CC)CC1`, the melting point lay in the range of 245 to 248 °C.
In turn, `CC(CCO)NC1=NS(=O)(=O)c2sc(Cl)cc2N1` (configuration not stated) came in with a melting point of 199 to 203 °C.
With `COc1ccc(-c2ccc(Br)c3ccsc23)cc1` the figure was 103 to 104 °C; with `COc1ccc2cc3c(CN)nn(C)c3nc2c1`, 119 to 120 °C; with `OC[C@@H](O)CCc1ccc2ccccc2c1O`, 105 to 108 °C.
The figure for `Nc1ccccc1NC(=O)CCCCCCNC(=O)c1cn2c3c(cccc13)CCC2` is 144 to 145 °C; for `CCCOc1ccc2c(c1)C(c1ccc(OC)cc1OCC(=O)O)CC2c1ccc2c(c1)OCO2` (configuration not stated) it is 177 to 178 °C.
With `CNc1nc(-c2ccc3c(c2)NC(=O)CO3)c(-c2ccccc2)s1` the figure was 236 to 248 °C; with `Cc1ncccc1C(C#N)N1CCN(C(=O)CC(NC(=O)c2ccc(OCc3ccc4ccccc4n3)cc2)c2ccccc2)CC1` (configuration not stated), 104 to 110 °C; with `COc1ccc(S(=O)(=O)C2(C(=O)O)CCCC2)cc1`, 89 to 91 °C.
Molecule `OC(C#CCN1CCC(O)(c2ccc(Cl)cc2)CC1)c1ccc(F)cc1` (configuration not stated) had a melting point of 145 to 146 °C.
The molecule `C=C(c1ccccc1)c1ccc2nc(N)n(S(=O)(=O)N(C)C)c2c1` yielded a melting point of 201 to 202 °C.
The figure for `O=C(NCc1cccc(C(F)(F)F)c1)c1sc2ccccc2c1O` is 139 to 141 °C; for `CCC(O)c1cc2c(cc1C)OCO2` (configuration not stated) it is 71 to 72 °C.
`COc1cc(CNC(=S)NC(COC(=O)C(C)(C)C)Cc2ccc(C)c(C)c2)ccc1O` (configuration not stated) returned a melting point of 43 to 48 °C.
Consider `O=[N+]([O-])c1ccc(F)cc1CS(=O)(=O)c1ccccc1`, for which the melting point was 169 to 171 °C.
With `COC(=O)c1ccc(S(=O)(=O)N2CC[C@@H](Sc3cc(C(C)(C)C)c(O)c(C(C)(C)C)c3)C2)n1C` the figure was 83 to 85 °C; with `OCC(CO)c1cccc2ccccc12`, 58 to 60 °C; with `CC(=O)Nc1cc(Br)ccc1C(=O)O`, 220 °C.
With `O=c1[nH]c2cc(F)c(F)cc2c(=O)n1CCCN1CC=C(c2ccc(Cl)cc2)CC1` the figure was 204 to 205 °C; with `CN1C(=O)[C@@H](NC(=O)OC(C)(C)C)CSc2ccccc21`, 116 to 120 °C; with `O=C(NCc1ccncc1)c1cc(-n2cnn(Cc3ccc(F)cc3)c2=O)n[nH]1`, 262 to 263 °C.
With `CC(C)CN1CCN(c2cc3ccccc3c(=O)[nH]2)CC1CO` (configuration not stated) the figure was 130 to 132 °C; with `Cc1nc2ccc(Oc3ncccc3C(=O)NCc3ccc(C(C)(C)O)cc3)cc2s1`, 131 to 133 °C; with `O=C1c2ccccc2C(=O)N1OCc1cn(C(c2ccccc2)(c2ccccc2)c2ccccc2)cn1`, 155 to 157 °C.
Regarding `NC(=O)c1cn(-c2ccccc2)nc1-c1ccc([N+](=O)[O-])o1`, the melting point is 236 to 238 °C.
With `O=C(C1CC=CCC1)C1CCC2C(C=CC3=CCCc4c3n2c2ccncc42)C1` (configuration not stated) the figure was 156 to 158 °C; with `COc1ccc(N(C(=O)CN2C(=O)C(CO)C(=O)N(c3ccccc3)c3ccccc32)C(C)C)cc1` (configuration not stated), 136 to 139 °C; with `COC(=O)Cc1cc(NC=O)cc(OC)n1`, 61 to 63 °C.
With `COc1ccc(-c2ncc(C(=O)O)s2)cc1OC1CCCC1` the figure was 170 to 171 °C; with `COC(=O)C1=C(CCc2ccccc2)NC(CC(=O)NCCO)=C(C(=O)OC)C1c1c(Cl)cccc1Cl` (configuration not stated), 192 to 194 °C; with `N#CCCN(CCC#N)c1ccccc1C#N`, 79 to 82 °C.
With `O=c1[nH]c2ccc(I)cc2c(=O)n1-c1ccc(Cl)cc1` the figure was 324 to 326 °C; with `NC1COc2ccccc2NC1=O` (configuration not stated), 65 to 70 °C; with `O=[N+]([O-])c1ccc(OCc2cccc(F)c2)cc1`, 104 to 105 °C.
The molecule `CCc1oc(C)cc(=O)c1C(=O)Nc1ccccc1` yielded a melting point of 154 to 156 °C.
Regarding `CCC(CC)Cn1c(=O)c(=O)[nH]c2ccc(NC(C)=O)cc21`, the melting point was 168 to 170 °C.
The figure for `O=c1oc(=O)n(Cc2ccccc2)c2ccc(F)cc12` is 95 °C.
In turn, `C=CCN(CC=C)c1ccc(NCCO)cc1[N+](=O)[O-]` yielded a melting point of 166 to 170 °C.
The figure for `CC(C)(C)C(=O)Nc1ccncc1-c1n[nH]c2ccccc12` is 232 to 233 °C; for `Cn1c(=N)sc2ccccc21` it is 122 °C.
Turning to `Cc1cc(Oc2ccccc2)c(S(C)(=O)=O)cc1C(=O)O`, the melting point stood at 195 °C.
With `O=C(O)[C@H](Cc1c[nH]c2ccccc12)NC(=O)C1(NC(=O)[C@@H](S)C2CCOCC2)CCCC1` the figure was 212 to 215 °C.
The figure for `COC(=O)C1=C(C)NC(C)=C(P2(=O)OC(C)CC(C)O2)C1c1cccc([N+](=O)[O-])c1` (configuration not stated) is 225 to 226 °C; for `N#Cc1ccccc1-c1c(O)ccc2c3c(oc12)-c1cc(O)ccc1CC3` it is 277 to 279 °C.
With `CCNC(=O)Cn1c(=O)c(=O)[nH]c2cc([N+](=O)[O-])c(-n3cccc3)cc21`, the melting point was over 300 °C.
On to `N#Cc1cnn2cccc2c1Nc1ccccc1`, for which the melting point worked out at 164 °C.
`CC(C)n1nc(-c2sc(C(=O)NC3CCCCC3)nc2-c2ccccc2)ccc1=O` displayed a melting point of 225 to 226 °C.
The figure for `CCOC(=O)Oc1ccc(N)c(C(=O)O)c1` is 157 to 158 °C; for `COc1ccc(S(=O)(=O)C(C)(CC=Cc2ccccc2)C(=O)NO)cc1` (configuration not stated) it is 162 to 164 °C.
`Oc1ccc2c(c1)CN(Cc1ccc(Cl)cc1)CC2` registered a melting point of 177 to 178 °C.
`COc1cc2c(cc1OC)CC(NC(=O)C1CCC(=O)N1)CC2` (configuration not stated): the melting point was in the range of 195 to 196 °C.
`COc1ccc(-c2c(Cl)c(CN3C(=O)CCC3=O)nc3sc4c(c23)CCC(=O)C4(C)C)cc1` displayed a melting point of 245 to 246 °C.
Take `COC(=O)c1cnc(N)c(N)c1`: the melting point fell in the range of 154 to 155 °C.
With `N#CCNC(=O)c1ccco1` the figure was 85 to 93 °C.
The figure for `COc1ccc2cc3c(Cl)nn(CC(C)N(C)C)c3nc2c1` (configuration not stated) is 78 to 79 °C; for `Cn1c2c(c3cc(F)ccc31)C(=O)CCC2` it is 158 °C; for `COn1c(Br)c(Br)c(C#N)c1-c1ccc(Cl)cc1` it is 190 °C.
The figure for `Clc1ccc(C(c2ccccc2)(c2ncc[nH]2)c2ncc[nH]2)cc1` is 140 °C.
Turning to `COc1cnc(CS(C)=O)nc1OC(=O)N(C)C` (configuration not stated), the melting point worked out at 122 °C.
With `COC(=O)CCc1oc2ccc(C#N)cc2c1C(=O)c1ccc(OC)cc1` the figure was 95 to 98 °C; with `O=C(O)Cc1c(C(=O)C2CCC2)[nH]c2cc(Cl)ccc12`, 225 to 228 °C.
